{"source": "patent US8569481B2", "about": "“Capture compounds, collections thereof and methods for analyzing the proteome and complex compositions” (Pharmaceuticals, Inc., priority 2001, dated 2013)", "target": "Cytochrome C (Bos taurus, UniProt P62894)", "sequence (P62894 whole entry)": "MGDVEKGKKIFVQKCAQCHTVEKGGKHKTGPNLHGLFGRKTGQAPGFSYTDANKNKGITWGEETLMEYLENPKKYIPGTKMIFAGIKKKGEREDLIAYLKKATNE", "experiment": "Time course reaction of cytochrome C with a non-specific capture compound, analyzed by MALDI-TOF mass spectrometry", "format": "binding", "from_the_text": "Four different capture compounds (designated HKC 1341 (2,5-dioxopyrrolidin-1-yl acetate), HKC 1343 (2,5-dioxopyrrolidin-1-yl 4-(hydroxybis(4-methoxyphenyl)methyl)benzoate), HKC 1349 (1-(4-((3-(2-hydroxyethoxy)phenyl)(phenyl)(3-phenylpropoxy)methyl)benzoyl)-1H-pyrrole-2,5-dione), and HKC 1365 (3-((4-((2,5-dioxopyrrolidin-1-yloxy)carbonyl)phenyl)diphenylmethoxy)propane-1,2-diyl dipalmitate)) were reacted individually with Cytochrome C (accession number: P00006, FIG. 20c). The capture experiments were analyzed using MALDI-TOF Mass Spectrometry. Binding was performed in 20 μL sample volumes with 5 μM Cytochrome C concentrations in 25 mM HEPES buffer solution, pH 7.0. The trityl-based capture compounds were added to the protein solution at a 10 μM concentration. […] The reaction was quenched using 1 μL of a 100 mM TRIZMA base solution. The capture compound-protein binding mixture was prepared for mass spectrometry analysis by mixing a 1 μL aliquot of the binding reaction with 1 μL of a 10 mg/mL sinapinic acid in 30% aqueous acetonitrile. The sample was deposited as a […] spot on the surface of mass target plates and subsequently air-dried before mass spectrometric analyses."}
{"smiles": "CC(=O)ON1C(=O)CCC1=O", "note": "[HKC 1341, 2,5-dioxopyrrolidin-1-yl acetate]", "values": [{"measurement": "modifications of cytochrome C resulting from binding of the capture compound", "setting": "after 30 minutes (middle spectrum, FIG. 20f)", "result": "1-9"}, {"measurement": "modifications of cytochrome C resulting from binding of the capture compound", "setting": "time 0 (top spectrum, FIG. 20f)", "result": "no modification"}]}
